Our source for the TGI values is PubChem BioAssay (NCI).

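The compound was tested at five concentrations on cells cultured in 96-well plates, with a 48-hour exposure period. The concentration for full growth arrest is given as TGI.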

Test systems include OVCAR-3 ovarian; NCI/ADR-RES ovarian; HCT-116 colon; KM12 colon; U251 CNS; HT29 colon; HL-60(TB) leukemia; UACC-62 melanoma; SF-268 CNS; UO-31 renal; EKVX NSCLC.
Holding throughout (test): NCI-60 cell line screen, 48 h

In the case of `COc1ccc(C2Oc3c(cccc3OC)C=C2[N+](=O)[O-])cc1` (stereo unspecified), the TGI in the assay with OVCAR-3 ovarian is 4.75 µM; in the assay on NCI/ADR-RES ovarian, 14.5 µM; with HCT-116 colon, 2.55 µM; in the assay on KM12 colon, 4.52 µM; in the assay with U251 CNS it was 3.76 µM; in the assay with HT29 colon, 4.59 µM. The TGI with HL-60(TB) leukemia was more than 100 µM; with UACC-62 melanoma it was 5.72 µM; in the assay with SF-268 CNS, 11.3 µM; in the assay with UO-31 renal, 3.14 µM; with EKVX NSCLC, 25.6 µM.
`O=C1c2ccc3ccccc3c2CCC1N1CCCCC1` (stereo unspecified): the TGI came out at 28.8 µM in the assay with OVCAR-3 ovarian; 46.3 µM with NCI/ADR-RES ovarian; 31.7 µM with HCT-116 colon; 31.6 µM in the assay on KM12 colon; 33.1 µM in the assay on U251 CNS; 39 µM in the assay with HT29 colon. The TGI in the assay on HL-60(TB) leukemia is 49.6 µM; in the assay on UACC-62 melanoma it was 30.3 µM; in the assay on SF-268 CNS, 39.7 µM; with UO-31 renal, 29.1 µM; with EKVX NSCLC, 51.7 µM.
With `N=C(N)c1ccc(-c2ccc(-c3ccc(C(=N)N)cc3)o2)cc1`, the TGI was more than 100 µM with OVCAR-3 ovarian; more than 100 µM with NCI/ADR-RES ovarian; more than 100 µM in the assay with HCT-116 colon; more than 100 µM in the assay with KM12 colon; 34.7 µM with U251 CNS; more than 100 µM in the assay on HT29 colon. In addition, the TGI with HL-60(TB) leukemia was more than 100 µM; in the assay with UACC-62 melanoma, more than 100 µM; with SF-268 CNS, more than 100 µM; with UO-31 renal, 68.1 µM; in the assay on EKVX NSCLC it was 91.6 µM.
With `COC(=O)c1cc(/C=C2\Cc3cc4c(cc3C2=O)CCC4)cc2c1CCC2`, the TGI in the assay with OVCAR-3 ovarian, in the assay on NCI/ADR-RES ovarian, with HCT-116 colon, in the assay with KM12 colon, with U251 CNS and in the assay on HT29 colon was more than 100 µM throughout. For the same compound, the TGI in the assay on HL-60(TB) leukemia, in the assay with UACC-62 melanoma, in the assay on SF-268 CNS, in the assay on UO-31 renal and in the assay with EKVX NSCLC was more than 100 µM in each case.
Consider `Cn1c(=O)c2c(nc3sc4ncccc4c(=O)n32)n(C)c1=O`, for which the TGI in the assay with OVCAR-3 ovarian, with NCI/ADR-RES ovarian, with HCT-116 colon, with KM12 colon, in the assay on U251 CNS and in the assay on HT29 colon was more than 100 µM throughout. For the same compound, the TGI in the assay on HL-60(TB) leukemia, in the assay on UACC-62 melanoma, in the assay on SF-268 CNS, in the assay on UO-31 renal and in the assay with EKVX NSCLC was more than 100 µM in each case.
For the compound `CO/N=C/c1c(-c2ccc(Cl)cc2)c(/C=N/OC)n2c1sc1ccccc12`, the TGI in the assay on OVCAR-3 ovarian, in the assay with NCI/ADR-RES ovarian, in the assay with HCT-116 colon, with KM12 colon, in the assay with U251 CNS and in the assay on HT29 colon was more than 100 µM each time. Further, the TGI in the assay on HL-60(TB) leukemia, with UACC-62 melanoma, in the assay on SF-268 CNS, with UO-31 renal and in the assay on EKVX NSCLC was more than 100 µM each time.
Consider `CC1(C)OC([C@H](O)CO)C([C@H]2NCCS2)O1` (stereo partly specified), for which the TGI with OVCAR-3 ovarian, with NCI/ADR-RES ovarian, with HCT-116 colon, in the assay on KM12 colon, in the assay with U251 CNS and with HT29 colon was more than 100 µM in each case. Further, the TGI in the assay on HL-60(TB) leukemia, with UACC-62 melanoma, in the assay with SF-268 CNS, with UO-31 renal and in the assay with EKVX NSCLC was more than 100 µM throughout.
Regarding `CC(=O)O[C@H]1C(=O)[C@@]2(C)[C@H]([C@H](OC(=O)c3ccncc3)[C@]3(O)C[C@H](OC(=O)[C@H](O)[C@@H](NC(=O)c4ccccc4)c4ccccc4)C(C)=C1C3(C)C)[C@]1(OC(C)=O)CO[C@@H]1C[C@@H]2O`, the TGI in the assay on OVCAR-3 ovarian is more than 18.5 µM; in the assay on NCI/ADR-RES ovarian, more than 25 µM; in the assay on HCT-116 colon, more than 11.1 µM; in the assay with KM12 colon, more than 25 µM; with U251 CNS, more than 23.3 µM; in the assay on HT29 colon it was more than 25 µM. The TGI in the assay with HL-60(TB) leukemia is 1.63 µM; in the assay on UACC-62 melanoma, more than 25 µM; in the assay with SF-268 CNS, more than 25 µM; in the assay with UO-31 renal, more than 25 µM; in the assay on EKVX NSCLC it was more than 25 µM.
As to `Oc1ccc2c3c1OC1c4[nH]c5c(c4CC4(O)C(C2)N(CC2CC2)CC[C@]314)CC1(O)C2Cc3ccc(O)c4c3[C@@]1(CCN2CC1CC1)C5O4` (stereo partly specified), the TGI in the assay on OVCAR-3 ovarian was 35.8 µM; in the assay with NCI/ADR-RES ovarian, more than 100 µM; in the assay on HCT-116 colon it was 33 µM; with KM12 colon, 32.2 µM; with U251 CNS, 34.6 µM; with HT29 colon it was 38.3 µM. Moreover, the TGI was 41.4 µM in the assay with HL-60(TB) leukemia; 43.7 µM in the assay with UACC-62 melanoma; 49.4 µM in the assay on SF-268 CNS; more than 100 µM in the assay with UO-31 renal; 99.3 µM with EKVX NSCLC.
As for `CC(=O)OCC(OC(C)=O)C(OC(C)=O)C(OC(C)=O)C(/C=N\Nc1nc2ccccc2c(=O)[nH]1)OC(C)=O` (stereo unspecified), the TGI with OVCAR-3 ovarian, in the assay on NCI/ADR-RES ovarian, in the assay on HCT-116 colon, with KM12 colon, in the assay on U251 CNS and with HT29 colon was more than 100 µM each time. Also, the TGI in the assay on HL-60(TB) leukemia, with UACC-62 melanoma, in the assay on SF-268 CNS, in the assay with UO-31 renal and with EKVX NSCLC was more than 100 µM throughout.
Regarding `Clc1cccc(Cl)c1C1SCc2nc3ncccc3n21` (stereo unspecified), the TGI in the assay on OVCAR-3 ovarian, in the assay on NCI/ADR-RES ovarian, in the assay with HCT-116 colon, in the assay with KM12 colon, in the assay with U251 CNS and with HT29 colon was more than 100 µM throughout. Further, the TGI in the assay with HL-60(TB) leukemia, with UACC-62 melanoma, in the assay on SF-268 CNS, in the assay with UO-31 renal and in the assay on EKVX NSCLC was more than 100 µM each time.
